US20250032385A1, “FUNCTIONAL COMPOSITION FOR ALOPECIA COMPRISING CENTIPEDA MINIMA-DERIVED EXTRACT” (priority 2021, published 2025)

What was measured:
[1] = tested on: mouse macrophage RAW 264.7 cells; settings: 24 hours; for Cell viability as the concentration increased (cytotoxicity): 1.25, 2.5, 5 and 10 μg/ml; for Concentration at which the cell viability was the highest: tested 1.25-10 μg/ml; for Cell viability compared with positive control group (CTL): 10 μg/mL
Procedure: In addition, for comparison, an NO production inhibition measurement experiment and a cell viability measurement experiment were also conducted on the synthetic anti-inflammatory agent dexamethasone.
The experiments were conducted using mouse macrophage RAW 264.7 cells as an inflammatory model. RAW 264.7 cells were cultured in a 100 mm cell culture dish with DMEM containing 10% fetal bovine serum and 1% penicillin in a 5% CO2 incubator. Cells that reached confluence were detached using a scraper and subcultured.
Specifically, for the experiment on cell viability, RAW 264.7 cells were dispensed on a 60-mm plate at a density of 2×10^6 cells/dish, and attached to the plate for 24 hours. Then, the cells were treated with fresh media containing each component at concentrations of 1.25, 2.5, 5 and 10 μg/ml and cultured for 24 hours. The number of viable cells was counted by measuring the dehydrogenase present in the mitochondria within the cultured cells. EZ-CYTOX reagent (EZ-1000, Daeilab) was used, and based on the absorbance measured at 450 nm, the cell viability for each concentration was calculated according to the following equation: Cell viability=(absorbance of CMX-treated group/absorbance of untreated group)×100.

[2] = tested on: mouse macrophage RAW 264.7 cells; type: cell-based; settings: for NO production as the concentration increased: 100 ng/ml LPS, 1.25, 2.5, 5 and 10 μg/ml; for NO production as the concentration increased / Concentration at which the production of NO was the lowest: 24 hours; for Concentration at which the production of NO was the lowest: tested 1.25-10 μg/ml; for Effect relative to the same amount Brevilin-A (potency value of inflammation inhibition rate): from NO production potency formulas, FIG. 12
Procedure: The amount of NO produced by the cultured RAW 264.7 cells and present in the culture medium was measured using a NO detection kit (cat. No. 21021, Intron) based on the Griess reaction. 100 μl of the culture medium estimated to contain NO was dispensed into 96-well plates, and then 50 μl of N1 buffer (sulfanilamide) was added thereto and reacted at room temperature for 10 minutes. Next, 50 μl of N2 buffer (naphthylethylenediamine) was added thereto and reacted at room temperature for 10 minutes, and then the absorbance was measured at 540 nm. The amount of NO produced was determined using a standard calibration curve obtained using a nitrite standard. In addition, a positive control group (CTL) was treated with only LPS and fresh medium not containing any of the components, and a negative control group was treated with only 100 ng/ml LPS. The measurement results are presented as the average value of three repeated experiments.

Row | Compound | Cell viability as the concentration increased (cytotoxicity) [1] | Concentration at which the cell viability was the highest [1] | NO production as the concentration increased [2] | Concentration at which the production of NO was the lowest ([2]; 100 ng/ml LPS) | Effect relative to the same amount Brevilin-A (potency value of inflammation inhibition rate) [2] | Cell viability compared with positive control group (CTL) [1] | NO production compared with positive control group (CTL) ([2]; 5 μg/mL, 100 ng/ml LPS)
1 | C/C=C(/C)C(=O)O[C@H]1[C@@H]2[C@H](C)C(=O)O[C@@H]2C[C@@H](C)[C@@H]2C=CC(=O)[C@]21C [Brevilin A] | no significant change | 5000 ng/mL | decreased | 5 µg/mL | 1.0 |  | 
2 | CC(C)C(=O)O[C@H]1[C@@H]2[C@H](C)C(=O)O[C@@H]2C[C@@H](C)[C@@H]2C=CC(=O)[C@]21C [Arnicolide C] | no significant change |  | decreased | 10 µg/mL | 0.7 | difference in cell viability from the positive control group (CTL) was significantly small | 
3 | C=C(C)C(=O)O[C@H]1[C@@H]2[C@H](C)C(=O)O[C@@H]2C[C@@H](C)[C@@H]2C=CC(=O)[C@]21C [Arnicolide D] | no significant change | 5000 ng/mL | decreased |  | 1.5 |  | lower than that in the positive control group (CTL)
4 | C/C=C(\C)C(=O)O[C@H]1[C@@H]2[C@H](C)C(=O)O[C@@H]2C[C@@H](C)[C@@H]2C=CC(=O)[C@]21C [Microhelenin C] | no significant change |  | decreased | 10 µg/mL | 0.8 | somewhat higher than that in the positive control group (CTL) | 
